Assay results from patent US10577378B2, “EIF4A-inhibiting compounds and methods related thereto” (eFFECTOR Therapeutics, Inc., priority 2015, dated 2020).

test system: MDA-MB-231 human breast cancer cells; test: Cell proliferation assay (CellTiter-Glo, 72 hours treatment); assay type: cell-based; conditions: Homo sapiens, MDA-MB-231, 72 h, read-out: MDA-MB-231 cell proliferation assay (IC50)
Outline: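 MDA-MB-231 cells seeded at 2,500 cells/well, treated next day with compound or DMSO vehicle for 72 h at 37 °C. Proliferation read by CellTiter-Glo; IC50 from sigmoidal non-linear regression, binned as +++ (<100 nM), ++ (100–1000 nM), + (>1000 nM).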

Row | SMILES | IC50
1 | COc1cncc2c1[C@]1(O)[C@@H](CN)C[C@@H](c3ccccc3)[C@]1(c1ccc(Br)cc1)O2 (racemic) [172F, Rac-(4bR,5R,7S,7aR)-5-(aminomethyl)-7a-(4-bromophenyl)-4-methoxy-7-phenyl-5,6,7,7a-tetrahydro-4bH-cyclopenta[4,5]furo[2,3-c]pyridin-4b-ol] | < 100 nM
2 | COc1cncc2c1[C@]1(O)[C@@H](CN3CCN(C)CC3)[C@H](CO)[C@@H](c3ccccc3)[C@]1(c1ccc(Br)cc1)O2 (racemic) [183F, Rac-(4bR,5R,6R,7S,7aR)-7a-(4-bromophenyl)-6-(hydroxymethyl)-4-methoxy-5-((4-methylpiperazin-1-yl)methyl)-7-phenyl-5,6,7,7a-tetrahydro-4bH-cyclopenta[4,5]furo[2,3-c]pyridin-4b-ol] | < 100 nM

same assay, conditions: Homo sapiens; MDA-MB-231 cells, 72 hours at 37° C., CellTiter-Glo; read-out: MDA-MB-231 cell proliferation assay (IC50)

Row | SMILES | IC50
3 | COc1cncc2c1[C@]1(O)[C@@H](CN)C[C@@H](c3ccccc3)[C@]1(c1ccc(C#N)cc1)O2 (racemic) [173F, Rac-4-((4bR,5R,7S,7aR)-5-(aminomethyl)-4b-hydroxy-4-methoxy-7-phenyl-4b,5,6,7-tetrahydro-7aH-cyclopenta[4,5]furo[2,3-c]pyridin-7a-yl)benzonitrile] | < 100 nM
4 | NC[C@H]1C[C@@H](c2ccccc2)[C@]2(c3ccc(Br)cc3)Oc3cc(Cl)cnc3[C@]12O (racemic) [174F, Rac-(5aR,6S,8R,8aR)-8-(aminomethyl)-5a-(4-bromophenyl)-3-chloro-6-phenyl-5a,6,7,8-tetrahydro-8aH-cyclopenta[4,5]furo[3,2-b]pyridin-8a-ol] | < 100 nM
5 | N#Cc1ccc([C@@]23Oc4cc(Cl)cnc4[C@]2(O)[C@@H](CN)C[C@H]3c2ccccc2)cc1 (racemic) [175F, Rac-4-((5aR,6S,8R,8aR)-8-(aminomethyl)-3-chloro-8a-hydroxy-6-phenyl-6,7,8,8a-tetrahydro-5aH-cyclopenta[4,5]furo[3,2-b]pyridin-5a-yl)benzonitrile] | < 100 nM
6 | N#Cc1ccc([C@@]23Oc4cc(C#N)cnc4[C@]2(O)[C@@H](CN)C[C@H]3c2ccccc2)cc1 (racemic) [176F, rac-(5aR,6S,8R,8aR)-8-(aminomethyl)-5a-(4-cyanophenyl)-8a-hydroxy-6-phenyl-5a,7,8,8a-tetrahydro-6H-cyclopenta[4,5]furo[3,2-b]pyridine-3-carbonitrile] | 100 to 1000 nM
7 | O[C@]12c3ncc(Cl)cc3O[C@@]1(c1ccc(Br)cc1)[C@H](c1ccccc1)C[C@@H]2CN1CCOCC1 (racemic) [177F, rac-(5aR,6S,8R,8aR)-5a-(4-bromophenyl)-3-chloro-8-(morpholinomethyl)-6-phenyl-5a,6,7,8-tetrahydro-8aH-cyclopenta[4,5]furo[3,2-b]pyridin-8a-ol] | 100 to 1000 nM
8 | N#Cc1ccc([C@@]23Oc4cc(Cl)cnc4[C@]2(O)[C@@H](CN2CCOCC2)C[C@H]3c2ccccc2)cc1 (racemic) [178F, Rac-4-((5aR,6S,8R,8aR)-3-chloro-8a-hydroxy-8-(morpholinomethyl)-6-phenyl-6,7,8,8a-tetrahydro-5aH-cyclopenta[4,5]furo[3,2-b]pyridin-5a-yl)benzonitrile] | < 100 nM
9 | COc1cncc2c1[C@]1(O)[C@@H](CN3CCOCC3)[C@H](CO)[C@@H](c3ccccc3)[C@]1(c1ccc(Br)cc1)O2 (racemic) [179F, Rac-(4bR,5R,6R,7S,7aR)-7a-(4-bromophenyl)-6-(hydroxymethyl)-4-methoxy-5-(morpho-linomethyl)-7-phenyl-5,6,7,7a-tetrahydro-4bH-cyclopenta[4,5]furo[2,3-c]pyridin-4b-ol] | < 100 nM
10 | COc1cncc2c1[C@]1(O)[C@@H](CN3CCOCC3)[C@H](CO)[C@@H](c3ccccc3)[C@]1(c1ccc(C#N)cc1)O2 (racemic) [180F, Rac-4-((4bR,5R,6R,7S,7aR)-4b-hydroxy-6-(hydroxymethyl)-4-methoxy-5-(morpholino-methyl)-7-phenyl-4b,5,6,7-tetrahydro-7aH-cyclopenta[4,5]furo[2,3-c]pyridin-7a-yl)benzonitrile] | < 100 nM
11 | COc1cncc2c1[C@]1(O)[C@@H](CNCC(F)F)[C@H](CO)[C@@H](c3ccccc3)[C@]1(c1ccc(Br)cc1)O2 (racemic) [181F, Rac-(4bR,5R,6R,7S,7aR)-7a-(4-bromophenyl)-5-(((2,2-difluoroethyl)amino)methyl)-6-(hydroxymethyl)-4-methoxy-7-phenyl-5,6,7,7a-tetrahydro-4bH-cyclopenta[4,5]furo[2,3-c]pyridin-4b-ol] | < 100 nM
12 | COc1cncc2c1[C@]1(O)[C@@H](CNCC(F)F)[C@H](CO)[C@@H](c3ccccc3)[C@]1(c1ccc(C#N)cc1)O2 (racemic) [182F, Rac-4-((4bR,5R,6R,7S,7aR)-5-(((2,2-difluoroethyl)amino)methyl)-4b-hydroxy-6-(hydroxyl-methyl)-4-methoxy-7-phenyl-4b,5,6,7-tetrahydro-7aH-cyclopenta[4,5]furo[2,3-c]pyridin-7a-yl)benzonitrile] | < 100 nM
13 | COc1cncc2c1[C@]1(O)[C@@H](CN3CCN(C)CC3)[C@H](CO)[C@@H](c3ccccc3)[C@]1(c1ccc(C#N)cc1)O2 (racemic) [184F, Rac-4-((4bR,5R,6R,7S,7aR)-4b-hydroxy-6-(hydroxymethyl)-4-methoxy-5-((4-methyl-piperazin-1-yl)methyl)-7-phenyl-4b,5,6,7-tetrahydro-7aH-cyclopenta[4,5]furo[2,3-c]pyridin-7a-yl)benzonitrile] | < 100 nM
14 | COc1cncc2c1[C@]1(O)[C@@H](CNC3COC3)[C@H](CO)[C@@H](c3ccccc3)[C@]1(c1ccc(Br)cc1)O2 (racemic) [185F, Rac-(4bR,5R,6R,7S,7aR)-7a-(4-bromophenyl)-6-(hydroxymethyl)-4-methoxy-5-((oxetan-3-ylamino)methyl)-7-phenyl-5,6,7,7a-tetrahydro-4bH-cyclopenta[4,5]furo[2,3-c]pyridin-4b-ol] | < 100 nM
15 | COc1cncc2c1[C@]1(O)[C@@H](CNC3COC3)[C@H](CO)[C@@H](c3ccccc3)[C@]1(c1ccc(C#N)cc1)O2 (racemic) [186F, Rac-4-((4bR,5R,6R,7S,7aR)-4b-hydroxy-6-(hydroxymethyl)-4-methoxy-5-((oxetan-3-ylamino)-methyl)-7-phenyl-4b,5,6,7-tetrahydro-7aH-cyclopenta[4,5]furo[2,3-c]pyridin-7a-yl)-benzonitrile] | < 100 nM
16 | COc1cncc2c1[C@]1(O)[C@@H](CNCc3ccncc3)[C@H](CO)[C@@H](c3ccccc3)[C@]1(c1ccc(Br)cc1)O2 (racemic) [187F, Rac-(4bR,5R,6R,7S,7aR)-7a-(4-bromophenyl)-6-(hydroxymethyl)-4-methoxy-7-phenyl-5-(((pyridin-4-ylmethyl)amino)methyl)-5,6,7,7a-tetrahydro-4bH-cyclopenta[4,5]furo[2,3-c]pyridin-4b-ol] | < 100 nM
17 | COc1cncc2c1[C@]1(O)[C@@H](CNCc3ccncc3)[C@H](CO)[C@@H](c3ccccc3)[C@]1(c1ccc(C#N)cc1)O2 (racemic) [188F, Rac-4-((4bR,5R,6R,7S,7aR)-4b-hydroxy-6-(hydroxymethyl)-4-methoxy-7-phenyl-5-(((pyridin-4-ylmethyl)amino)methyl)-4b,5,6,7-tetrahydro-7aH-cyclopenta[4,5]furo[2,3-c]pyridin-7a-yl)benzonitrile] | < 100 nM
